Measured values from patent publication US20080227820A1, “CYCLIC PHENYL-SUBSTITUTED INDAZOLS, A PROCESS FOR THEIR PRODUCTION AND THEIR USE AS ANTI-INFLAMMATORY AGENTS” (priority 2006, published 2008).
pIC50: −log10 of the molar value.

Key:
[1] = target: T1, mineral corticoid receptor (MR) (Homo sapiens, UniProt P08235); assay: Binding to recombinant mineral corticoid receptor; details: recombinantly produced receptor
T1 sequence (P08235 1-984): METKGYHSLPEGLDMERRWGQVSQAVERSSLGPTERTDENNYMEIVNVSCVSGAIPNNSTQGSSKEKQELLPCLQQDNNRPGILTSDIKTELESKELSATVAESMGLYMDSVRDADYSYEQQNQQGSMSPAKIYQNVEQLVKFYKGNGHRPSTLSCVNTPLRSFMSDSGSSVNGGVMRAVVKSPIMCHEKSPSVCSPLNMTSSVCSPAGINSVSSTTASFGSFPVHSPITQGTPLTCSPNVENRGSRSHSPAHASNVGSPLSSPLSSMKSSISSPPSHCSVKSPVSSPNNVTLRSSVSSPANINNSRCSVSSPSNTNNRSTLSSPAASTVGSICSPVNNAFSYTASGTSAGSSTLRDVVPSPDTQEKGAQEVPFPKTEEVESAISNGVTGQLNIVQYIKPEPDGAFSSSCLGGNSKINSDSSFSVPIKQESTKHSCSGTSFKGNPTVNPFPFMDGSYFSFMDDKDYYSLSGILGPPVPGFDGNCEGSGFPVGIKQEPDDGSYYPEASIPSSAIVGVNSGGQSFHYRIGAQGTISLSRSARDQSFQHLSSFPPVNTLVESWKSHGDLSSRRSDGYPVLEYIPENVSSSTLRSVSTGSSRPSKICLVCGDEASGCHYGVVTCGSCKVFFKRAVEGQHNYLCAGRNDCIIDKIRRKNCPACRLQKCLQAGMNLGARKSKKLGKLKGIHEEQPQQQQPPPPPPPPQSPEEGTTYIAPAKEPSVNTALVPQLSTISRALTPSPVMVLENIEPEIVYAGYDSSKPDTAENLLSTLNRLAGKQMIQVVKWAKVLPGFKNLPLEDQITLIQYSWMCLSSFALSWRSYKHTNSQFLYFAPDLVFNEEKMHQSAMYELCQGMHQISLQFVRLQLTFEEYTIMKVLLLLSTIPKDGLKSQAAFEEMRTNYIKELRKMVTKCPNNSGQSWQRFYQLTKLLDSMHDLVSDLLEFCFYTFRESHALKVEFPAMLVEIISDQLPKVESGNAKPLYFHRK
Text: (§1) The binding of the substances to the glucocorticoid receptor (GR) and other steroid hormone receptors (mineral corticoid receptor (MR), progesterone receptor (PR) and androgen receptor (AR)) is examined with the aid of recombinantly produced receptors. Cytosol preparations of Sf9 cells, which had been infected with recombinant baculoviruses, which code for the GR, are used for the binding studies. In comparison to reference substance [^3H]-dexamethasone, the substances show a high to very high affinity to GR.

[2] = target: T2, glucocorticoid receptor (GR) (Homo sapiens, UniProt P04150); assay: Binding to recombinant glucocorticoid receptor, Sf9 cytosol, vs [3H]-dexamethasone; details: [3H]-dexamethasone reference
T2 construct: made in house; host or cells: Sf9 cells infected with recombinant baculovirus (cytosol preparation)
T2 sequence (P04150 1-777): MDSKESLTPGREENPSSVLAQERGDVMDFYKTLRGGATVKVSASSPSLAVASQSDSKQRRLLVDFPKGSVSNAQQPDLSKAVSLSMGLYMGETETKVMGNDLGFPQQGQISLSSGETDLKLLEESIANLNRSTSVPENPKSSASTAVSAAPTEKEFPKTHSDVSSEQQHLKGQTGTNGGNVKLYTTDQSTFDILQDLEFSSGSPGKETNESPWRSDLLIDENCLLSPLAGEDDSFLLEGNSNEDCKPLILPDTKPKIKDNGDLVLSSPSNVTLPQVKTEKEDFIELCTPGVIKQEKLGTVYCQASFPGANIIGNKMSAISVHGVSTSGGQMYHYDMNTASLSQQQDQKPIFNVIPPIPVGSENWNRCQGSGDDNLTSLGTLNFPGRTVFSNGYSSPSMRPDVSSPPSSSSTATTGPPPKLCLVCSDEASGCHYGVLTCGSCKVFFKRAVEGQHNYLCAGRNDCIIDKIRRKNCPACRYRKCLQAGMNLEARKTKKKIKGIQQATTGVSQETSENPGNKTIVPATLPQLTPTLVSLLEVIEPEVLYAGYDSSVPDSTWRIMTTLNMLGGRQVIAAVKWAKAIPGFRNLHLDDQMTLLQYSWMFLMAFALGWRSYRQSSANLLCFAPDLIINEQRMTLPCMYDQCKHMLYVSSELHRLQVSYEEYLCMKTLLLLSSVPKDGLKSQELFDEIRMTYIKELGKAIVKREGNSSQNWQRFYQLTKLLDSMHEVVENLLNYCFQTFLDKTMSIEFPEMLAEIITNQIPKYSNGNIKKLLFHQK
Text: as §1

androgen receptor (AR) = target: T3, androgen receptor (AR) (Homo sapiens, UniProt P10275); assay: Binding to recombinant androgen receptor; details: recombinantly produced receptor
T3 sequence (P10275 1-920): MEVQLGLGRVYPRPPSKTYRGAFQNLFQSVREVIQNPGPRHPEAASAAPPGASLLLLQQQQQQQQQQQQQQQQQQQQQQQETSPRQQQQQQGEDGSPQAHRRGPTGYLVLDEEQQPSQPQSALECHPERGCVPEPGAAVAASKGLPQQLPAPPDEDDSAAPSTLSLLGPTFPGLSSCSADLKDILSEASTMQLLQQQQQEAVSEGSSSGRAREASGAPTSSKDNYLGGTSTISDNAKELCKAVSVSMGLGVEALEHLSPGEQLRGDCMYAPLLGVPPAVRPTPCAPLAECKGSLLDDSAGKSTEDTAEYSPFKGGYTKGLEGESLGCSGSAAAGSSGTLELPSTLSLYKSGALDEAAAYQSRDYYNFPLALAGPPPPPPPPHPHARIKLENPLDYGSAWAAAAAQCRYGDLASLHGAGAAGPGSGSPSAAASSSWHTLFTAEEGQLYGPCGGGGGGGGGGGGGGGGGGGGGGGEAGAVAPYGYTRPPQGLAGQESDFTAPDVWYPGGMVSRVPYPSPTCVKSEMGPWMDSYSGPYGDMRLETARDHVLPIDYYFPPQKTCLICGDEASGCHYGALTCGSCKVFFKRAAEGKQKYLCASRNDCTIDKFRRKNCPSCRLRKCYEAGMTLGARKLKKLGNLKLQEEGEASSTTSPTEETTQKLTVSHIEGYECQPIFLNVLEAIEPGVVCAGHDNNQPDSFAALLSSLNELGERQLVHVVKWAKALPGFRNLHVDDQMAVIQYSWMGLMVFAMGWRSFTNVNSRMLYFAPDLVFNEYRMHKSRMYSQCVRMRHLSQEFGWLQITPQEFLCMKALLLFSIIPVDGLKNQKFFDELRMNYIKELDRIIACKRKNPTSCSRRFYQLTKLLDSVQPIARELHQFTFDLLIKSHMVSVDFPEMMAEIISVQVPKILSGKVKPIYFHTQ
Text: as §1

ER = assay: Steroid receptor binding, ER
[3] = test system: human monocyte cell line THP-1; assay: Inhibition of LPS-triggered IL-8 secretion in THP-1 cells (ELISA); format: cell-based
Method: The concentration of the cytokines was determined in the supernatant by means of commercially available ELISA kits.

[4] = target: T4, progesterone receptor (PR) (Homo sapiens, UniProt P06401); assay: Binding to recombinant progesterone receptor; details: recombinantly produced receptor
T4 sequence (P06401 1-933): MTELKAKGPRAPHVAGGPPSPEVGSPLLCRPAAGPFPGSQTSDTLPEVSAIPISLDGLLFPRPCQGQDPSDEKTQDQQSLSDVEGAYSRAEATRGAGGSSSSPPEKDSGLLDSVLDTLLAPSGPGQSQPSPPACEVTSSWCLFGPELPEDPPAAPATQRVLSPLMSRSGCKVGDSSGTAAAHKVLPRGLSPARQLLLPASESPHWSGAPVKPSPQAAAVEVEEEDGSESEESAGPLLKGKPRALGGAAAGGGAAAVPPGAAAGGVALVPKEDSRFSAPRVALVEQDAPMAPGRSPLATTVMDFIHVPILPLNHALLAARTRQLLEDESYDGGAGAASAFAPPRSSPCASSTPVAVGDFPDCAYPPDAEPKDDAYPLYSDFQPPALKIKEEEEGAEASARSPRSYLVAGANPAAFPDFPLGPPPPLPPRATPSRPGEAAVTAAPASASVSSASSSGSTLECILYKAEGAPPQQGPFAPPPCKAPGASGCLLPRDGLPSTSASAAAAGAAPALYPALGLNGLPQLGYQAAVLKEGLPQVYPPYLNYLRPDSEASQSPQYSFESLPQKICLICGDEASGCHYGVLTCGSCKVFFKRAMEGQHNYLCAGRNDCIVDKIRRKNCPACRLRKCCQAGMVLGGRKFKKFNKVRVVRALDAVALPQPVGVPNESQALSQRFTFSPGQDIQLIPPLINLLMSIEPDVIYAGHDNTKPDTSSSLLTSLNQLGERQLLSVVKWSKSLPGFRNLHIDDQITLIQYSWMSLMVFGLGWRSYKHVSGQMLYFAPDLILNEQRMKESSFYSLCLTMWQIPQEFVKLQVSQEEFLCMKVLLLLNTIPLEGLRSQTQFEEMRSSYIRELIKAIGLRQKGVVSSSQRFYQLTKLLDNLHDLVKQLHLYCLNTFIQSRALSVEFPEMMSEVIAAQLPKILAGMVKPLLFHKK
Text: as §1

## CC[C@@H]1C[C@](O)(C(F)(F)F)[C@@H](Nc2cccc3c2cnn3-c2ccc(F)cc2)c2ccc(F)c(O)c21 [Example 4]
[1]
  pIC50: < 6.00
[2]
  pIC50: 7.78
Androgen receptor (AR)
  pIC50: < 6.00
ER
  pIC50: < 6.00
[3]; Homo sapiens, THP-1, supernatant ELISA, read-out: IC50(IL8)
  pIC50: 8.62
[3]; THP-1, relative to dexamethasone
  eff. relative to dexamethasone (IL-8 inhibition): 91%
[4]
  pIC50: < 6.00
